# Measurements: patent US20130096067A1, “DROSOPHILA TUMOR STEM CELL MODEL AND USES THEREOF” (priority 2011, published 2013)
# System: Raf-1^gof intestinal tumors
# Settings: assessed three days later; for Log2 (fold) (luciferase activity, log2 of the fold difference relative to DMSO controls) / Fold (luciferase activity, fold difference relative to DMSO controls): screen of 480 ICCB compounds in vials, compounds fed to flies with one-day old Raf-1^gof tumors, esg-Gal4 luciferase; for Fold (luciferase activity, fold difference relative to DMSO controls) / Fold (luciferase activity relative to DMSO controls): averaged from multiple wells; for Log2 (fold) of luciferase activity relative to DMSO controls / Fold (luciferase activity relative to DMSO controls): ICCB compounds fed in vials to flies with one-day old Raf-1^gof tumors
# Note: test concentration or dose not given here.
Molecule,"Log2 (fold) (luciferase activity, log2 of the fold difference relative to DMSO controls)","Fold (luciferase activity, fold difference relative to DMSO controls)",Log2 (fold) of luciferase activity relative to DMSO controls,Fold (luciferase activity relative to DMSO controls)
COc1ccc2cc1Oc1ccc(cc1)C[C@H]1c3cc(c(OC)cc3CCN1C)Oc1c(OC)c(OC)cc3c1[C@H](C2)N(C)CC3 [TETRANDRINE],−0.318,0.802,,
CC1(COc2ccc(CC3SC(=O)NC3=O)cc2)CCCCC1 (centres unmarked) [CIGLITAZONE],,,0.038,1.027 fold
LY-294002,,,−0.204,0.868 fold
CCCCC[C@H](O)/C=C/C1=C(C/C=C\CCCC(=O)O)C(=O)CC1 [PROSTAGLANDIN B2],−0.330,0.796,,
CC/C=C\C/C=C\C/C=C\CCCCCCCC(=O)O [LINOLENIC ACID (18:3 n-3)],,,0.096,1.069 fold
NC(N)=NCCNS(=O)(=O)c1cccc2cnccc12 [HA-1004],−0.372,0.773,,
CC1=C(C)C(=O)C(CCCCC#CCCCC#CCO)=C(C)C1=O [AA-861],−0.444,0.735,,
CO/C1=C\C(C)=C\[C@@H](C)[C@@H](O)[C@@H](C)C/C(C)=C/C=C/[C@H](OC)[C@@H]([C@@H](C)[C@@H](O)[C@H](C)[C@@]2(O)C[C@@H](O)[C@H](C)[C@@H](C(C)C)O2)OC1=O [bafilomycin A1],−0.234,0.850,,
COCc1cc(O)c(O)c(O)c1-c1c(COC)cc(O)c(O)c1O [HBDDE],−0.233,0.851,,
C=C1[C@@H](C)[C@H]2[C@H](Cc3ccccc3)NC(=O)[C@]23OC(=O)/C=C/[C@H](O)CCC[C@@H](C)C/C=C/[C@H]3[C@@H]1O [cytochalasin B],−0.677,0.625,,
C#CCN(C)C(C)Cc1ccccc1 (centres unmarked) [Deprenyl],−0.642,0.641,,
CN1CCN(C2=Nc3cc(Cl)ccc3Nc3ccccc32)CC1 [clozapine],,,−0.126,0.916 fold
CCCCCCCCCCCCC(O)C(=O)O (centres unmarked) [2-HYDROXYMYRISTIC ACID],,,0.087,1.062 fold
NC12CC3CC(CC(C3)C1)C2 [AMANTIDINE],−0.252,0.840,,
COC(=O)c1c(C)[nH]c(C)c1C(=O)c1ccccc1Cc1ccccc1 [FPL-64176],,,−0.166,0.891 fold
CCOC(=O)C1=C(C)NC(C)=C(C(=O)OC)C1c1cccc([N+](=O)[O-])c1 (centres unmarked) [NITRENDIPINE],−0.400,0.758,,
CCCCC[C@H](O)/C=C/C1=C(CCCCCCC(=O)O)C(=O)CC1 [PROSTAGLANDIN B1],−0.408,0.753,,
CCCCC[C@H](O)/C=C/[C@H]1C=CC(=O)[C@@H]1CCCCCCC(=O)O [PROSTAGLANDIN A1],−0.522,0.696,,
c1ccc(CN(CCN(Cc2ccccn2)Cc2ccccn2)Cc2ccccn2)nc1 [TPEN],−0.717,0.608,,
